Potency and logP data for 13 compounds are collected here from ChEMBL document CHEMBL1134811, “Hydrophobicity, a physicochemical factor in the inhibition of the enzyme estrone sulfatase (ES)” (Bioorg Med Chem Lett, 2001).

Series [1] concerns the target T1, Steryl-sulfatase (Homo sapiens) (UniProt P08842).
T1 sequence (whole entry): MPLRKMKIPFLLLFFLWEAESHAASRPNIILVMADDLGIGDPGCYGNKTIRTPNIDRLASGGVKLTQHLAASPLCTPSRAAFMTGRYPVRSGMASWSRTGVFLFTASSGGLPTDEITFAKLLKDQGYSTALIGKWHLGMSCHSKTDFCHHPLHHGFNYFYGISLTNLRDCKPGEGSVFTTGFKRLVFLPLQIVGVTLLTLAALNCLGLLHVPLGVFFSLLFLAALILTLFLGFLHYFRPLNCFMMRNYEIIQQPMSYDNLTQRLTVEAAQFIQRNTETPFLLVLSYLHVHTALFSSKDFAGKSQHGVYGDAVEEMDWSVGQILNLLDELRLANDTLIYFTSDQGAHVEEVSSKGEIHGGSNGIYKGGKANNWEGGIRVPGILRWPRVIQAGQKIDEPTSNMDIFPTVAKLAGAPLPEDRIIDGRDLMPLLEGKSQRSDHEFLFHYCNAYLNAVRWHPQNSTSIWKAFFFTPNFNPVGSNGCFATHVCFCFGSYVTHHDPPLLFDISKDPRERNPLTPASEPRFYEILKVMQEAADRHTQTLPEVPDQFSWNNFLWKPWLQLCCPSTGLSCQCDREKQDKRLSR
The experiment in a line: Inhibitory activity against estrone sulfatase relative to 4-Methylcoumarin-7-O-sulfamate derivative (COUMATE).

In series [2] the target is T1, Steryl-sulfatase (Homo sapiens).
Description: Inhibitory activity against estrone sulfatase expressed as potency
Series [3] can be described thus: Partition coefficient (logP). The format is physicochemical. Conditions: octanol/water.
Series [4] concerns the target T1, Steryl-sulfatase (Homo sapiens). The experiment in a line: Inhibitory activity against estrone sulfatase relative to Estrone-3-sulfamate (EMATE).

`C[C@]12CC[C@@H]3c4ccc(OS(N)(=O)=O)cc4CCC3[C@@H]1CCC2=O` (single isomer, unassigned) [EMATE]: the figures for the Potency in series [1] and in series [2] were 24 and 1, respectively. Further, the log partition coefficient (logP) (usually the decadic logarithm of the partition coefficient of the neutral form, usually between octanol and water) in series [3] turned out to be 3.9.
`CCCCCCC(=O)c1ccc(OS(N)(=O)=O)cc1`: the Potency in series [1] worked out at 2.4; in series [4], 0.1. Further, the log partition coefficient (logP) in series [3] was 3.3.
The like results for `NS(=O)(=O)Oc1ccc(C(=O)c2ccccc2)cc1` were, in that order, 0.191, 0.0079 and 2.9.
For the compound `CCCCCCCC(=O)c1ccc(OS(N)(=O)=O)cc1`, the Potency in series [1] was 2.14; in series [4], 0.0893. In series [3], this compound gave a log partition coefficient (logP) of 3.7.
The matching figures for `NS(=O)(=O)Oc1ccc(C(=O)/C=C/c2ccccc2)cc1`: 0.0456, 0.0019 and 3.4.
For the compound `Cc1cc(=O)oc2cc(OS(N)(=O)=O)ccc12`, the Potency is 1 in series [2] and 0.0417 in series [4]. The logP in series [3] was found to be 1.7.
For the compound `CCCCCCCCCC(=O)c1ccc(OS(N)(=O)=O)cc1`, the figures for the Potency in series [1] and in series [4] were 0.923 and 0.0385, respectively. The compound also yielded a lipophilicity (logP) in series [3] of 4.4.
Regarding `CCCCCCCCC(=O)c1ccc(OS(N)(=O)=O)cc1`, the Potency in series [1] was determined as 3.53; in series [4], 0.147. The same compound returned a log partition coefficient (logP) in series [3] of 4.1.
For `NS(=O)(=O)Oc1ccc(C=O)cc1`, the Potency in series [1] was found to be 0.0472; in series [4], 0.0019. In addition, the log partition coefficient (logP) in series [3] came to 1.4.
The matching figures for `CC(=O)c1ccc(OS(N)(=O)=O)cc1`: 0.0397, 0.0016 and 1.1.
`CCCC(=O)c1ccc(OS(N)(=O)=O)cc1`: the Potency amounted to 0.301 in series [1] and 0.0126 in series [4]. The compound further showed a logP in series [3] of 2.1.
For the compound `CCCCC(=O)c1ccc(OS(N)(=O)=O)cc1`, the Potency in series [1] is 0.574; in series [4] it was 0.0239. In series [3], this compound showed a lipophilicity (logP) of 2.5.
Turning to `NS(=O)(=O)Oc1ccc(C(=O)Cc2ccccc2)cc1`, the Potency in series [1] worked out at 0.364; in series [4], 0.0152. The compound also gave a lipophilicity (logP) in series [3] of 2.9.
